According to publication PMC6197257 (Scientific Reports, 2018):

Tests used:
rat 11β-HSD2 = molecular target: T1, rat 11β-HSD2 (Rattus norvegicus, UniProt P50233); conditions: previous study; cited from earlier work
T1 construct: kidney microsome fractions were obtained from male Wistar rats (7-week-old); from tissue; host or cells: rat kidney microsome fraction (male Wistar rats)
T1 sequence (P50233 1-400): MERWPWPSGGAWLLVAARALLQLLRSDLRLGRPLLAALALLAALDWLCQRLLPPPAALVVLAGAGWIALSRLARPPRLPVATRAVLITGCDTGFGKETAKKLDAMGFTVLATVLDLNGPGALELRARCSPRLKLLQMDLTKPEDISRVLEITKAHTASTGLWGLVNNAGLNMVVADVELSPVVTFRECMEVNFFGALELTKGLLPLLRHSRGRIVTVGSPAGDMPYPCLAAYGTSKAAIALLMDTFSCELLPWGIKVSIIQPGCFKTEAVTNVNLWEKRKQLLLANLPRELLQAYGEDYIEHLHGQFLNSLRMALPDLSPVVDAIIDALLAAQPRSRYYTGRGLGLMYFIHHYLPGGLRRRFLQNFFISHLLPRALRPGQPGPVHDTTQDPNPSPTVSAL

anti-3MGA MAb = test: competitive ELISA cross-reactivity of anti-3MGA MAb; assay type: binding, mouse; conditions: CR = IC50 for 3MGA / IC50 for compound x 100, 3MGA calibrated as 100%
Protocol: To activate the hapten 3MGA for the preparation of anti-3MGA MAb, the 3MGA-KLH conjugate was synthesized by using a model based on the carbodiimide method with both EDC and NHS reagents. 3MGA-HSA was also prepared using the same method, and was used for ELISA. We also evaluated the hapten number of the 3MGA-HSA conjugate by MALDI-TOF MS analysis. […] The MAb was developed by using the same methods described in our previous study. Hybridomas secreting antibodies recognizing 3MGA were selected by ELISA and then subcloned 4 times by the limited dilution method. […] The heavy chain of the obtained MAb was classified using a Calbiochem mouse hybridoma subisotyping kit (EMD Biosciences, Darmstadt, Germany), whereas the light chain was estimated using an IsoQuick^TM mouse monoclonal isotyping strip (Sigma) according to the manufacturer’s instructions.
3MGA-HSA (1 µg/ml in 50 mM carbonate buffer, pH 9.6) was added into a 96-well plate (Nagel Nunc, Penfield, NY, USA) (100 µl/well), and incubated at 37 °C for 1 h. After the removal of 3MGA-HSA, the wells were washed with 200 µl/well PBS containing 0.05% Tween 20 (T-PBS) for 3 times. The wells were incubated with 300 µl/well of 5% skim milk (Morinaga-milk, Tokyo, Japan) at 4 °C overnight. […] After the wells were washed with T-PBS 3 times, HRP-labeled goat anti-mouse IgG (Fc specific) antibody (1:1,000 dilution with T-PBS) was added into the wells (100 µl/well), and the plate was incubated at 37 °C for 1 h. Next, the wells were washed with T-PBS 3 times, the substrate solution (0.006% H2O2 in 200 mM citrate buffer, pH 4.0/H2O/0.6 mg/ml ABTS 10:9:1) was added into the wells (100 µl/well), and incubated at room temperature for 15 min.

OAT3 = molecular target: T2, OAT3 (Homo sapiens, UniProt Q8TCC7); conditions: cited from earlier work
T2 construct: expressed in transfected cells
T2 sequence (Q8TCC7 1-542): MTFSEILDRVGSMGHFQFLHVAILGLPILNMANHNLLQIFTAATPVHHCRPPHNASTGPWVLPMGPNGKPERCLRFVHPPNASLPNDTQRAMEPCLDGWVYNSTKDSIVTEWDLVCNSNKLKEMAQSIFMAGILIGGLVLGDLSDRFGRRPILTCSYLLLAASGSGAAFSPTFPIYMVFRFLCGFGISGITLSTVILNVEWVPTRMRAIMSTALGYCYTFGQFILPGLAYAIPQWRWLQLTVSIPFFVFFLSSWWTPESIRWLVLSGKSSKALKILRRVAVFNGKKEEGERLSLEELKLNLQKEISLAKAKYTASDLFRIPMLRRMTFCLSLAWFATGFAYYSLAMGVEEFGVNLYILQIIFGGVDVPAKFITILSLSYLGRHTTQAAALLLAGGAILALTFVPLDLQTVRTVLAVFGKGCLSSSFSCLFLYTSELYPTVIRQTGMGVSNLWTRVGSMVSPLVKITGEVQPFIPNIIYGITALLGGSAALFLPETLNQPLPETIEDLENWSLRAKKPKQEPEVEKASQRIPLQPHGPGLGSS

OAT1 = molecular target: T3, OAT1 (Homo sapiens, UniProt Q4U2R8); conditions: cited from earlier work
T3 construct: expressed in transfected cells
T3 sequence (Q4U2R8 1-563): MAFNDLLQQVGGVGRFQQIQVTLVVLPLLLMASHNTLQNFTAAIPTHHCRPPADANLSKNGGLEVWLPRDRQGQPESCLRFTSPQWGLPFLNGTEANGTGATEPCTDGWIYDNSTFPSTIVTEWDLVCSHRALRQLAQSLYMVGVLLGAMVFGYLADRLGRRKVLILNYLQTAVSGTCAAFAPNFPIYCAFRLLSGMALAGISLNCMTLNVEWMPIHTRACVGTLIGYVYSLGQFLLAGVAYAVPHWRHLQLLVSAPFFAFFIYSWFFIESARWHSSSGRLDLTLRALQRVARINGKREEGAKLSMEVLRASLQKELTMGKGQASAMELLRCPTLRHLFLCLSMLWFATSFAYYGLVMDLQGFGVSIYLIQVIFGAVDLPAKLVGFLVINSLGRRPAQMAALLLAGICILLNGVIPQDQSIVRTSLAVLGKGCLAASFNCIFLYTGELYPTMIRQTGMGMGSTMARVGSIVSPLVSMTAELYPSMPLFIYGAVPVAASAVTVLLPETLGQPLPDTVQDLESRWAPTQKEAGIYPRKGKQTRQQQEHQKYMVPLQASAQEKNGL

[1] = pharmacokinetic profile of 3MGA in EHBRs orally treated with GA (50 mg/kg); assay type: in vivo; conditions: Eisai Hyperbilirubinemia rats (EHBR), rat, plasma; female EHBRs, GA 50 mg/kg oral; read-out: time of maximum plasma concentration
Protocol: Female EHBRs (8 or 9-week-old) were orally treated with GA (50 mg/kg) suspended in 0.5% CMC, and kept in metabolic cages. Blood samples (approximately 0.3 ml) were collected from the tail 1, 2, 3, 6, 12, 24, and 48 h after the oral treatment. Urine samples were collected 6, 12, 24, and 48 h after the oral treatment. The concentrations of 3MGA in the samples were measured by both ELISA and LC-MS/MS described in our previous paper. Ten µl aliquots of plasma or urine from rats treated with GA, or standard solution of 3MGA in plasma or urine collected from normal rats were mixed with 20 µl of 1:1,000 diluted subtilisin, and incubated at 37 °C for 30 min. After adding 70 µl of EtOH containing 10 µg/ml of PHB used as internal standard, the solution was applied into the system. The mass spectrometer used an electrospray ionization source in the positive ion mode with multiple reaction monitoring (ESI(+)MS-MRM). The analytical column was an Inertsil ODS-4, 2 mm i.d. ×75 mm, 3 µm (GL Sciences Inc., Tokyo, Japan). […] The transitions (precursor to daughter) monitored and retention times were 647.4 to 453.5 m/z for 3MGA (4.4 min) and 195.2 to 139.0 m/z for PHB (4.8 min). […]

Structure (SMILES): CC1(C)[C@@H](O[C@@H]2O[C@H](C(=O)O)[C@@H](O)[C@H](O)[C@H]2O)CC[C@]2(C)[C@H]3C(=O)C=C4[C@@H]5C[C@@](C)(C(=O)O)CC[C@]5(C)CC[C@@]4(C)[C@]3(C)CC[C@@H]12 [Compound 3MGA, 3-monoglucuronyl glycyrrhetinic acid]
- IC50 (rat 11β-HSD2): 260 nM
- cross-reactivity of anti-3MGA MAb (anti-3MGA MAb): 100%
- substrate of OAT3 (OAT3): is a substrate
- substrate of OAT1 (OAT1): is a substrate
- Tmax [1]: 6 h
